Patent US20250164397A1, “SULPHIDE SENSOR” (Oxford University Innovation Limited, priority 2021, published 2025)
One block for each compound: values may come before it.

Assays:
[1] = cited from earlier work
[2] = Fluorescence titration with NaCl, Bindfit 1:1 analysis, pH 7.4 10 mM aqueous HEPES buffer; assay type: binding; design: key to Association constant Ka Cl^−: NB: No binding observed; settings: for Association constant Ka Cl^−: 10 μM receptors in 10 mM aqueous HEPES buffer solution, pH = 7.4, 1:1 host:guest, errors in brackets; for fluorescence response to Cl^−: excitation at 342 nm, pH 7.4 HEPES
Description: (§1) Fluorescence titration experiments were performed using a Horiba Duetta at 293 K. The host molecules (XB1-3, and HB1-3) were dissolved in 10 mM HEPES aqueous buffer solution at pH 7.4 at a concentration of 10 μM. Na salts of the appropriate anion were dissolved in the solution of the host molecule to obtain a concentration. Aliquots of the anion solution were added to 1.00 mL of the host solution in a quartz cuvette, where the sample was then thoroughly mixed before fluorescence spectra were recorded. Association constants were obtained by global analysis using BindFit, using a host-guest 1:1 binding model.
(§2) The anion sensing properties were investigated in pH 7.4 aqueous HEPES buffer solution using fluorescence spectroscopy. At this pH value the protonated forms XB3H^+ and HB3H^+ are the dominant receptor species present in the aqueous solution. The amine pKa of XB3 (10.29) and HB3 (9.98) were experimentally determined by monitoring changes in fluorescence with pH. (FIG. 16).
(§3) The fluorescence emission, following excitation at 342 nm, was monitored upon the addition of sodium hydrosulfide and halide salts.
(§4) With XB2, both Br^− and I^− were sensed (FIG. 11), with the heavier halide also being detected by XB3H^+ (FIG. 13).
(§5) Bindfit analysis^23,24 of the titration data for XB and HB receptors was used to determine 1:1 host: guest stoichiometric anion association constants, as shown below in Table 1.

[3] = Fluorescence titration with NaBr, Bindfit 1:1 analysis, pH 7.4 10 mM aqueous HEPES buffer; assay type: binding; design: key to Association constant Ka Br^−: NB: No binding observed; settings: for Association constant Ka Br^−: 10 μM receptors in 10 mM aqueous HEPES buffer solution, pH = 7.4, 1:1 host:guest, errors in brackets; for fluorescence response to Br^−: excitation at 342 nm, pH 7.4 HEPES
Description: as §1, §2, §3, §4, §5

[4] = Fluorescence titration with NaI, Bindfit 1:1 analysis, pH 7.4 10 mM aqueous HEPES buffer; assay type: binding; design: key to Association constant Ka I^−: NB: No binding observed; settings: for Association constant Ka I^−: 10 μM receptors in 10 mM aqueous HEPES buffer solution, pH = 7.4, 1:1 host:guest, errors in brackets; for fluorescence response to I^−: excitation at 342 nm, pH 7.4 HEPES
Description: as §1, §2, §3, §4, §5

[5] = Fluorescence titration with NaHS, Bindfit 1:1 analysis and LoD, pH 7.4 10 mM aqueous HEPES buffer; assay type: binding; design: key to Association constant Ka HS^− / LoD, Limit of Detection for HS−: NB: No binding observed; settings: for Association constant Ka HS^−: 10 μM receptors in 10 mM aqueous HEPES buffer solution, pH = 7.4, 1:1 host:guest, errors in brackets; for LoD, Limit of Detection for HS−: 10 μM receptors in 10 mM aqueous HEPES buffer, pH 7.4
Description: as §1, §2
The fluorescence emission, following excitation at 342 nm, was monitored upon the addition of sodium hydrosulfide and halide salts. […]
as §5

[6] = Fluorescence emission change on addition of NaCl, NaBr, NaI, NaHS in pH 7.4 HEPES buffer (any anion); assay type: binding
Description: as §1, §3, §4

[7] = pKa determined by monitoring changes in fluorescence with pH; assay type: physicochemical; settings: for pKa1 / pKa2: emission intensity change with changing pH; for amine pKa: monitoring changes in fluorescence with pH
Description: FIG. 16. XB3: a) XB3 emission intensity change with decreasing pH; b) Emission intensity change for select wavelengths with changing pH; pKa1=4.07 (±0.01), pKa2=10.29 (±0.01). HB3: a) HB3 emission intensity change with decreasing pH; b) Emission intensity change for select wavelengths with changing pH; pKa1=5.91 (±0.07), pKa2=9.98 (±0.01).
as §2

[8] = Fluorescence response of BODIPY receptors in H2O/30% ACN upon titration with various anions; assay type: binding; settings: 70% water/30% acetonitrile
Description: (§6) Any observed fluorescence quenching in water could be readily circumvented by addition of a small amount of organic co-solvent. Preliminary solution-phase fluorescence sensing studies of both receptors were thus carried out in 70% water/30% acetonitrile.

[9] = Water solubility; assay type: physicochemical
[10] = Electrospray mass spectrometry monitoring for reaction with excess HS^−; assay type: physicochemical; settings: 10 μM in 10 mM HEPES aqueous buffer (7.4 pH), excess equivalents of HS^−
Description: (§7) However, the increase in binding strength comes at the expense of a diminished degree of selectivity for HS^− as XB2 also binds Br^− and in particular I^− strongly.

[11] = Fluorescence titration of buffered receptor against NaOH; settings: buffered 10 μM receptor
Description: as §7

[12] = Fluorescence titration of XB4 with NaCl in unbuffered water, BindFit; assay type: binding; design: key: N.B.: No Binding; settings: unbuffered water at 298 K; errors in parentheses
Description: (§8) Fluorescence titrations of XB4 were carried out with chloride, bromide, iodide and hydrosulfide.
(§9) BindFit analysis for each anion to determine binding isotherms (FIG. 20), and 1:1 stoichiometric association constants, shown in Table 2, was also conducted for XB4.

[13] = Fluorescence titration of XB4 with NaBr in unbuffered water, BindFit; assay type: binding; settings: unbuffered water at 298 K
Description: as §8, §9

[14] = Fluorescence titration of XB4 with NaI in unbuffered water, BindFit; assay type: binding; settings: unbuffered water at 298 K
Description: as §8, §9

[15] = Fluorescence titration of XB4 with NaSH in unbuffered water, BindFit; assay type: binding; settings: unbuffered water at 298 K
Description: as §8, §9

[16] = Solution-phase fluorescence sensing of BODIPY receptors in 70% water/30% acetonitrile; assay type: binding
Description: as §6

[17] = excitation at 342 nm, pH 7.4 HEPES

SMILES: S [Compound H2S, hydrogen sulphide]
- pKa [1]: 7.0

SMILES: COCCOCCOCCOc1cc(COc2ccc3cc(-n4cc(-c5cncc(-c6cn(-c7cc8ccc(OCc9cc(OCCOCCOCCOC)c(OCCOCCOCCOC)c(OCCOCCOCCOC)c9)cc8oc7=O)nn6)c5)nn4)c(=O)oc3c2)cc(OCCOCCOCCOC)c1OCCOCCOCCOC [HB1, reference compound]
- Association constant Ka Cl^− [2]: NB
- Association constant Ka Br^− [3]: NB
- Association constant Ka I^− [4]: NB
- Association constant Ka HS^− [5]: NB
- LoD, Limit of Detection for HS− [5]: NB
- fluorescent response to any anion [6]: only minor fluorescence perturbations

SMILES: COCCOCCOCCOc1cc(COc2ccc3cc(-n4nnc(-c5cncc(-c6nnn(-c7cc8ccc(OCc9cc(OCCOCCOCCOC)c(OCCOCCOCCOC)c(OCCOCCOCCOC)c9)cc8oc7=O)c6I)c5)c4I)c(=O)oc3c2)cc(OCCOCCOCCOC)c1OCCOCCOCCOC [XB1]
- Association constant Ka Cl^− [2]: NB
- fluorescence response to Cl^− [2]: no intensity diminutions
- Association constant Ka Br^− [3]: NB
- fluorescence response to Br^− [3]: no intensity diminutions
- Association constant Ka I^− [4]: NB
- fluorescence response to I^− [4]: no intensity diminutions
- Association constant Ka HS^− [5]: 16500 (1600) M^−1
- fluorescence intensity quenched ([5]; 10 equivalents of HS^−, excitation at 342 nm, pH 7.4 HEPES): 60%
- reaction with HS^− (electrospray mass spectrometry) [10]: no evidence of reaction was observed

SMILES: COCCOCCOCCOc1cc(COc2ccc3cc(-n4nnc(-c5cc(-c6nnn(-c7cc8ccc(OCc9cc(OCCOCCOCCOC)c(OCCOCCOCCOC)c(OCCOCCOCCOC)c9)cc8oc7=O)c6I)c[n+](C)c5)c4I)c(=O)oc3c2)cc(OCCOCCOCCOC)c1OCCOCCOCCOC.O=S(=O)([O-])C(F)(F)F [XB2]
- Association constant Ka Cl^− [2]: NB
- fluorescence response to Cl^− [2]: no change was observed
- Association constant Ka Br^− [3]: 60800 M⁻¹
- fluorescence response to Br^− [3]: sensed
- Association constant Ka I^− [4]: 103000 (24000) M^−1
- fluorescence response to I^− [4]: sensed
- Association constant Ka HS^− [5]: 158000 (31000) M^−1
- quenching on addition of HS^− [5, 17]: 45%

SMILES: COCCOCCOCCN(CCCOc1ccc2cc(-n3nnc(CNCc4nnn(-c5cc6ccc(OCCCN(CCOCCOCCOC)CCOCCOCCOC)cc6oc5=O)c4I)c3I)c(=O)oc2c1)CCOCCOCCOC [XB4]
- Association constant Ka Cl^− [12]: N.B.
- coumarin fluorescence response to bromide [13]: switching off
- Association constant Ka Br^− ([13]; errors in parentheses): >10^5 M^−1
- coumarin fluorescence response to iodide [14]: switching off
- Association constant Ka I^− ([14]; errors in parentheses): >10^5 M^−1
- coumarin fluorescence response to hydrosulfide [15]: switching off
- Association constant Ka HS^− ([15]; errors in parentheses): 7500 (660) M^−1

Further lines, with some results ahead:

- pKa1 [7]: 5.91 (±0.07)
- pKa2 [7]: 9.98 (±0.01)
- amine pKa [7]: 9.98
SMILES: COCCOCCOCCOc1cc(COc2ccc3cc(-n4cc(CNCc5cn(-c6cc7ccc(OCc8cc(OCCOCCOCCOC)c(OCCOCCOCCOC)c(OCCOCCOCCOC)c8)cc7oc6=O)nn5)nn4)c(=O)oc3c2)cc(OCCOCCOCCOC)c1OCCOCCOCCOC [HB3, reference compound]
- Association constant Ka Cl^− [2]: NB
- Association constant Ka Br^− [3]: NB
- Association constant Ka I^− [4]: NB
- Association constant Ka HS^− [5]: NB
- LoD, Limit of Detection for HS− [5]: NB
- fluorescent response to any anion [6]: no fluorescent response to any anion

- response for all anions, in particular HS^−, compared with XB-BDP-PEG [8]: significantly diminished
- water solubility [9]: generally water soluble
SMILES: COCCOCCOCCOc1cc(COC(=O)c2cc(-n3cc(C4=C5C(C)=CC(C)=[N+]5[B-](F)(F)n5c(C)cc(C)c54)nn3)cc(-n3cc(C4=C5C(C)=CC(C)=[N+]5[B-](F)(F)n5c(C)cc(C)c54)nn3)c2)cc(OCCOCCOCCOC)c1OCCOCCOCCOC [HB-BDP-PEG, reference compound]

- pKa1 [7]: 4.07 (±0.01)
- pKa2 [7]: 10.29 (±0.01)
- amine pKa [7]: 10.29
- change in fluorescence on titration against NaOH [11]: no change in fluorescence
SMILES: COCCOCCOCCOc1cc(COc2ccc3cc(-n4nnc(CNCc5nnn(-c6cc7ccc(OCc8cc(OCCOCCOCCOC)c(OCCOCCOCCOC)c(OCCOCCOCCOC)c8)cc7oc6=O)c5I)c4I)c(=O)oc3c2)cc(OCCOCCOCCOC)c1OCCOCCOCCOC [XB3]
- Association constant Ka Cl^− [2]: NB
- fluorescence response to Cl^− [2]: no change was observed
- Association constant Ka Br^− [3]: NB
- Association constant Ka I^− [4]: 46000 (14000) M^−1
- fluorescence response to I^− [4]: detected
- Association constant Ka HS^− [5]: 5600 (530) M^−1
- LoD, Limit of Detection for HS− ([5]; listed as XB3H^+): 24.6 µM
- quenching on addition of HS^− [5, 17]: 38%

- fluorescence perturbation by I^− [16]: Smaller, but notable, perturbations
- fluorescence perturbation by SCN^− [16]: Smaller, but notable, perturbations
- fluorescence response to Br [16]: only very small responses
- fluorescence response to Cl [16]: only very small responses
- emission quenching by HS^− ([16]; preliminary): ≈ 65%
- water solubility [9]: generally water soluble
SMILES: COCCOCCOCCOc1cc(COC(=O)c2cc(-n3nnc(C4=C5C(C)=CC(C)=[N+]5[B-](F)(F)n5c(C)cc(C)c54)c3I)cc(-n3nnc(C4=C5C(C)=CC(C)=[N+]5[B-](F)(F)n5c(C)cc(C)c54)c3I)c2)cc(OCCOCCOCCOC)c1OCCOCCOCCOC [XB-BDP-PEG]
